{"source": "patent US20260070945A1", "about": "“MACROCYCLIC IMMUNOMODULATORS” (Bristol-Myers Squibb Company, priority 2022, published 2026)", "note": "*1 amine or outer side, *2 acyl side, *3 side chain or, on linkers, in order; H or OH if unused. Where a SMILES comes first, the peptide text is derived from it. Bridges are numbered along the chain shown (N, C = ends). [ ]: non-standard residue; d: D form. The star is where a group is joined. Phe(3-CF3) = N[C@@H](Cc1cccc(C(F)(F)F)c1)C(=O)O; Ala(morpholin-4-yl) = N[C@@H](CN1CCOCC1)C(=O)O; Phe(4-COOH) = N[C@@H](Cc1ccc(C(=O)O)cc1)C(=O)O; Bip = N[C@@H](Cc1ccc(-c2ccccc2)cc1)C(=O)O; γGlu = O=C(O)[C@H](CCC(=O)[*:2])N[*:1]; NH(CH2)12COOH = O=C(O)CCCCCCCCCCCCN*; Val(3-OH) = CC(C)(O)[C@H](N)C(=O)O; Cha = N[C@@H](CC1CCCCC1)C(=O)O; Cit = NC(=O)NCCC[C@H](N)C(=O)O; Carboxymethyl = O=C(O)C*; NMeA = CN[C@@H](C)C(=O)O; Dab = NCC[C@H](N)C(=O)O; AEEA = NCCOCCOCC(=O)O"}
{"target": "T1, PD-1/PD-L1 interaction (PE-labeled human PD-L1-Ig binding to Jurkat cell line over-expressing human PD-1) (Homo sapiens, UniProt Q15116)", "T1 construct": "expressed in transfected cells; host or cells: Jurkat", "T1 sequence (Q15116 25-288)": "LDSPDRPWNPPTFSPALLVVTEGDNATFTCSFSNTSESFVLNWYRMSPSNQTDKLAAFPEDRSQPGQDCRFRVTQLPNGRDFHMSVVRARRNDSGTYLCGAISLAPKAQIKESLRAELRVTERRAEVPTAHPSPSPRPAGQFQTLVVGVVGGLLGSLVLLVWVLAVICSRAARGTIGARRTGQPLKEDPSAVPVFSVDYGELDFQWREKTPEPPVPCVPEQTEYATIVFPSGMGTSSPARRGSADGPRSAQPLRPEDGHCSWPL", "assay": "Jurkat-PD-1 Cell Binding High-Content Screening Assay (CBA)", "settings": "Jurkat-hPD-1 cells, PE-labeled PD-L1-Ig 20 nM final; read-out: Jurkat HPD1 PDL1 IC50", "procedure,_shortened": "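Binding of 20 nM (final) PE-tagged PD-L1-Ig to compound-pretreated Jurkat-hPD-1 cells was measured by high-content imaging after 1 h. Pretreatment ran 2 h at 37 °C in DMEM with 10% fetal calf serum.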", "units": {"IC50": "nM"}}
{"molecule": "CC(C)C[C@H]1NC(=O)[C@H](C)N(C)C(=O)[C@H](CCCNC(N)=O)NC(=O)[C@H](Cc2ccc(-c3ccccc3)cc2)NC(=O)[C@H](Cc2ccc(C(=O)O)cc2)NC(=O)[C@H](Cc2cccc(C(F)(F)F)c2)NC(=O)[C@H](CC(=O)O)NC(=O)[C@H](Cc2ccc(OCC(=O)O)cc2)NC(=O)[C@H](CN2CCOCC2)NC(=O)CSC[C@@H](C(=O)N[C@@H](CCN)C(=O)NCCCCCCCCCCCCC(=O)O)NC(=O)[C@H](CC(=O)O)NC(=O)[C@H](C(C)(C)O)NC(=O)[C@H](CC2CCCCC2)NC(=O)[C@H](CCN)NC1=O", "note": "[Example 1154] ({CH2CO}-[Ala(morpholin-4-yl)]Y(Carboxymethyl)D[Phe(3-CF3)][Phe(4-COOH)][Bip][Cit][NMeA][dL][Dab][Cha][Val(3-OH)]DC[Dab]-{NH(CH2)12COOH}; thioether N-14)", "IC50": 15.6}
{"molecule": "CC(C)C[C@H]1NC(=O)[C@H](C)N(C)C(=O)[C@H](CCCNC(N)=O)NC(=O)[C@H](Cc2ccc(-c3ccccc3)cc2)NC(=O)[C@H](Cc2ccc(C(=O)O)cc2)NC(=O)[C@H](Cc2cccc(C(F)(F)F)c2)NC(=O)[C@H](CC(=O)O)NC(=O)[C@H](Cc2ccc(OCC(=O)O)cc2)NC(=O)[C@H](CN2CCOCC2)NC(=O)CSC[C@@H](C(=O)N[C@@H](CCN)C(=O)NCCCCCCCCCCCCC(=O)O)NC(=O)[C@H](CCC(=O)O)NC(=O)[C@H](C(C)C)NC(=O)[C@H](CC2CCCCC2)NC(=O)[C@H](CCN)NC1=O", "note": "[Example 1155] ({CH2CO}-[Ala(morpholin-4-yl)]Y(Carboxymethyl)D[Phe(3-CF3)][Phe(4-COOH)][Bip][Cit][NMeA][dL][Dab][Cha]VEC[Dab]-{NH(CH2)12COOH}; thioether N-14)", "IC50": 8.6}
{"molecule": "CC(C)C[C@H]1NC(=O)[C@H](C)N(C)C(=O)[C@H](CCCNC(N)=O)NC(=O)[C@H](Cc2ccc(-c3ccccc3)cc2)NC(=O)[C@H](Cc2ccc(C(=O)O)cc2)NC(=O)[C@H](Cc2cccc(C(F)(F)F)c2)NC(=O)[C@H](CC(=O)O)NC(=O)[C@H](Cc2ccc(OCC(=O)O)cc2)NC(=O)[C@H](CN2CCOCC2)NC(=O)CSC[C@@H](C(=O)N[C@@H](CCN)C(=O)NCCCCCCCCCCCCC(=O)O)NC(=O)[C@H](CO)NC(=O)[C@H](C(C)(C)O)NC(=O)[C@H](CC2CCCCC2)NC(=O)[C@H](CCN)NC1=O", "note": "[Example 1156] ({CH2CO}-[Ala(morpholin-4-yl)]Y(Carboxymethyl)D[Phe(3-CF3)][Phe(4-COOH)][Bip][Cit][NMeA][dL][Dab][Cha][Val(3-OH)]SC[Dab]-{NH(CH2)12COOH}; thioether N-14)", "IC50": 15.1}
{"molecule": "CC(=O)NCCCC[C@@H]1NC(=O)[C@H](C(C)(C)O)NC(=O)[C@H](CC2CCCCC2)NC(=O)[C@H](CCN)NC(=O)[C@@H](CC(C)C)NC(=O)[C@H](C)N(C)C(=O)[C@H](CCCNC(N)=O)NC(=O)[C@H](Cc2ccc(-c3ccccc3)cc2)NC(=O)[C@H](Cc2ccc(C(=O)O)cc2)NC(=O)[C@H](Cc2cccc(C(F)(F)F)c2)NC(=O)[C@H](CC(=O)O)NC(=O)[C@H](Cc2ccc(OCC(=O)O)cc2)NC(=O)[C@H](CN2CCOCC2)NC(=O)CSC[C@@H](C(=O)N[C@@H](CCN)C(=O)NCCCCCCCCCCCCC(=O)O)NC1=O", "note": "[Example 1157] ({CH2CO}-[Ala(morpholin-4-yl)]Y(Carboxymethyl)D[Phe(3-CF3)][Phe(4-COOH)][Bip][Cit][NMeA][dL][Dab][Cha][Val(3-OH)]K(Ac)C[Dab]-{NH(CH2)12COOH}; thioether N-14)", "IC50": 4.6}
{"molecule": "CC(C)C[C@H]1NC(=O)[C@H](C)N(C)C(=O)[C@H](CCCNC(N)=O)NC(=O)[C@H](Cc2ccc(-c3ccccc3)cc2)NC(=O)[C@H](Cc2ccc(C(=O)O)cc2)NC(=O)[C@H](Cc2cccc(C(F)(F)F)c2)NC(=O)[C@H](CC(=O)O)NC(=O)[C@H](Cc2ccc(OCC(=O)O)cc2)NC(=O)[C@H](Cc2ccc(C(=O)O)cc2)NC(=O)CSC[C@@H](C(=O)N[C@@H](CCN)C(=O)NCCOCCOCC(=O)N[C@@H](CCC(=O)NCCOCCOCC(=O)NCCCCCCCCCCCCC(=O)O)C(=O)O)NC(=O)[C@H](CCC(=O)O)NC(=O)[C@H](C(C)C)NC(=O)[C@H](CC2CCCCC2)NC(=O)[C@H](CCN)NC1=O", "note": "[Example 1158] ({CH2CO}-[Phe(4-COOH)]Y(Carboxymethyl)D[Phe(3-CF3)][Phe(4-COOH)][Bip][Cit][NMeA][dL][Dab][Cha]VEC[Dab][AEEA][γGlu][AEEA]-{NH(CH2)12COOH}; thioether N-14)", "IC50": 50.3}
{"molecule": "CC(=O)NCCCC[C@@H]1NC(=O)[C@H](C(C)(C)O)NC(=O)[C@H](CC2CCCCC2)NC(=O)[C@H](CCN)NC(=O)[C@@H](CC(C)C)NC(=O)[C@H](C)N(C)C(=O)[C@H](CCCNC(N)=O)NC(=O)[C@H](Cc2ccc(-c3ccccc3)cc2)NC(=O)[C@H](Cc2ccc(C(=O)O)cc2)NC(=O)[C@H](Cc2cccc(C(F)(F)F)c2)NC(=O)[C@H](CC(=O)O)NC(=O)[C@H](Cc2ccc(OCC(=O)O)cc2)NC(=O)[C@H](Cc2ccc(C(=O)O)cc2)NC(=O)CSC[C@@H](C(=O)N[C@@H](CCN)C(=O)NCCOCCOCC(=O)N[C@@H](CCC(=O)NCCOCCOCC(=O)NCCCCCCCCCCCCC(=O)O)C(=O)O)NC1=O", "note": "[Example 1159] ({CH2CO}-[Phe(4-COOH)]Y(Carboxymethyl)D[Phe(3-CF3)][Phe(4-COOH)][Bip][Cit][NMeA][dL][Dab][Cha][Val(3-OH)]K(Ac)C[Dab][AEEA][γGlu][AEEA]-{NH(CH2)12COOH}; thioether N-14)", "IC50": 46.4}
{"molecule": "CC(C)C[C@H]1NC(=O)[C@H](C)N(C)C(=O)[C@H](Cc2ccc(C(=O)O)cc2)NC(=O)[C@H](Cc2ccc(-c3ccccc3)cc2)NC(=O)[C@H](Cc2ccc(C(=O)O)cc2)NC(=O)[C@H](Cc2cccc(C(F)(F)F)c2)NC(=O)[C@H](CC(=O)O)NC(=O)[C@H](Cc2ccc(OCC(=O)O)cc2)NC(=O)[C@H](Cc2ccc(C(=O)O)cc2)NC(=O)CSC[C@@H](C(=O)N[C@@H](CCN)C(=O)NCCOCCOCC(=O)N[C@@H](CCC(=O)NCCOCCOCC(=O)NCCCCCCCCCCCCC(=O)O)C(=O)O)NC(=O)[C@H](CCC(=O)O)NC(=O)[C@H](C(C)C)NC(=O)[C@H](CC2CCCCC2)NC(=O)[C@H](CCN)NC1=O", "note": "[Example 1160] ({CH2CO}-[Phe(4-COOH)]Y(Carboxymethyl)D[Phe(3-CF3)][Phe(4-COOH)][Bip][Phe(4-COOH)][NMeA][dL][Dab][Cha]VEC[Dab][AEEA][γGlu][AEEA]-{NH(CH2)12COOH}; thioether N-14)", "IC50": 101}
{"molecule": "CC(C)C[C@H]1NC(=O)[C@H](C)N(C)C(=O)[C@H](Cc2ccc(C(=O)O)cc2)NC(=O)[C@H](Cc2ccc(-c3ccccc3)cc2)NC(=O)[C@H](Cc2ccc(C(=O)O)cc2)NC(=O)[C@H](Cc2cccc(C(F)(F)F)c2)NC(=O)[C@H](CC(=O)O)NC(=O)[C@H](Cc2ccc(OCC(=O)O)cc2)NC(=O)[C@H](Cc2ccc(C(=O)O)cc2)NC(=O)CSC[C@@H](C(=O)N[C@@H](CCN)C(=O)NCCOCCOCC(=O)N[C@@H](CCC(=O)NCCOCCOCC(=O)NCCCCCCCCCCCCC(=O)O)C(=O)O)NC(=O)[C@H](CO)NC(=O)[C@H](C(C)(C)O)NC(=O)[C@H](CC2CCCCC2)NC(=O)[C@H](CCN)NC1=O", "note": "[Example 1161] ({CH2CO}-[Phe(4-COOH)]Y(Carboxymethyl)D[Phe(3-CF3)][Phe(4-COOH)][Bip][Phe(4-COOH)][NMeA][dL][Dab][Cha][Val(3-OH)]SC[Dab][AEEA][γGlu][AEEA]-{NH(CH2)12COOH}; thioether N-14)", "IC50": 81.4}
{"molecule": "COC[C@@H]1NC(=O)CSC[C@@H](C(=O)N[C@@H](CCN)C(=O)NCCOCCOCC(=O)N[C@@H](CCC(=O)NCCOCCOCC(=O)NCCCCCCCCCCCCC(=O)O)C(=O)O)NC(=O)[C@H](CCC(=O)O)NC(=O)[C@H](C(C)C)NC(=O)[C@H](CC2CCCCC2)NC(=O)[C@H](CCN)NC(=O)[C@@H](CC(C)C)NC(=O)[C@H](C)N(C)C(=O)[C@H](CCC(N)=O)NC(=O)[C@H](Cc2ccc(-c3ccccc3)cc2)NC(=O)[C@H](Cc2ccc(C(=O)O)cc2)NC(=O)[C@H](Cc2cccc(C(F)(F)F)c2)NC(=O)[C@H](CC(=O)O)NC(=O)[C@H](Cc2ccc(OCC(=O)O)cc2)NC1=O", "note": "[Example 1163] ({CH2CO}-S(Me)Y(Carboxymethyl)D[Phe(3-CF3)][Phe(4-COOH)][Bip]Q[NMeA][dL][Dab][Cha]VEC[Dab][AEEA][γGlu][AEEA]-{NH(CH2)12COOH}; thioether N-14)", "IC50": 15.2}
{"molecule": "COC[C@@H]1NC(=O)CSC[C@@H](C(=O)N[C@@H](CCN)C(=O)NCCOCCOCC(=O)N[C@@H](CCC(=O)NCCOCCOCC(=O)NCCCCCCCCCCCCC(=O)O)C(=O)O)NC(=O)[C@H](CO)NC(=O)[C@H](C(C)(C)O)NC(=O)[C@H](CC2CCCCC2)NC(=O)[C@H](CCN)NC(=O)[C@@H](CC(C)C)NC(=O)[C@H](C)N(C)C(=O)[C@H](CCC(N)=O)NC(=O)[C@H](Cc2ccc(-c3ccccc3)cc2)NC(=O)[C@H](Cc2ccc(C(=O)O)cc2)NC(=O)[C@H](Cc2cccc(C(F)(F)F)c2)NC(=O)[C@H](CC(=O)O)NC(=O)[C@H](Cc2ccc(OCC(=O)O)cc2)NC1=O", "note": "[Example 1164] ({CH2CO}-S(Me)Y(Carboxymethyl)D[Phe(3-CF3)][Phe(4-COOH)][Bip]Q[NMeA][dL][Dab][Cha][Val(3-OH)]SC[Dab][AEEA][γGlu][AEEA]-{NH(CH2)12COOH}; thioether N-14)", "IC50": 8.9}
{"molecule": "COC[C@@H]1NC(=O)CSC[C@@H](C(=O)N[C@@H](CCN)C(=O)NCCOCCOCC(=O)N[C@@H](CCC(=O)NCCOCCOCC(=O)NCCCCCCCCCCCCC(=O)O)C(=O)O)NC(=O)[C@H](CCCCNC(C)=O)NC(=O)[C@H](C(C)(C)O)NC(=O)[C@H](CC2CCCCC2)NC(=O)[C@H](CCN)NC(=O)[C@@H](CC(C)C)NC(=O)[C@H](C)N(C)C(=O)[C@H](CCC(N)=O)NC(=O)[C@H](Cc2ccc(-c3ccccc3)cc2)NC(=O)[C@H](Cc2ccc(C(=O)O)cc2)NC(=O)[C@H](Cc2cccc(C(F)(F)F)c2)NC(=O)[C@H](CC(=O)O)NC(=O)[C@H](Cc2ccc(OCC(=O)O)cc2)NC1=O", "note": "[Example 1165] ({CH2CO}-S(Me)Y(Carboxymethyl)D[Phe(3-CF3)][Phe(4-COOH)][Bip]Q[NMeA][dL][Dab][Cha][Val(3-OH)]K(Ac)C[Dab][AEEA][γGlu][AEEA]-{NH(CH2)12COOH}; thioether N-14)", "IC50": 21.8}
